# Source: US5849690A, “Anti-aggregatory peptides” (SmithKline Beecham Corporation, priority 1992, dated 1998)
# “Also recorded” adds a separate entry of the source. Residues, ends and D or L forms follow the SMILES beside them.
# Key:
# [1] = target: T1, Platelet rich plasma, PRP (Canis lupus familiaris, UniProt A0A8I3N5G5+A0A8I3PMU9); assay: Inhibition of platelet aggregation, PRP/ADP; format: cell-based; settings: dog platelet rich plasma, 2 μM ADP, peptide added 3 min. prior to agonist; read-out: Antiaggregatory Activity IC50, μM PRP/ADP
# T1 sequence (A0A8I3N5G5 1-1047): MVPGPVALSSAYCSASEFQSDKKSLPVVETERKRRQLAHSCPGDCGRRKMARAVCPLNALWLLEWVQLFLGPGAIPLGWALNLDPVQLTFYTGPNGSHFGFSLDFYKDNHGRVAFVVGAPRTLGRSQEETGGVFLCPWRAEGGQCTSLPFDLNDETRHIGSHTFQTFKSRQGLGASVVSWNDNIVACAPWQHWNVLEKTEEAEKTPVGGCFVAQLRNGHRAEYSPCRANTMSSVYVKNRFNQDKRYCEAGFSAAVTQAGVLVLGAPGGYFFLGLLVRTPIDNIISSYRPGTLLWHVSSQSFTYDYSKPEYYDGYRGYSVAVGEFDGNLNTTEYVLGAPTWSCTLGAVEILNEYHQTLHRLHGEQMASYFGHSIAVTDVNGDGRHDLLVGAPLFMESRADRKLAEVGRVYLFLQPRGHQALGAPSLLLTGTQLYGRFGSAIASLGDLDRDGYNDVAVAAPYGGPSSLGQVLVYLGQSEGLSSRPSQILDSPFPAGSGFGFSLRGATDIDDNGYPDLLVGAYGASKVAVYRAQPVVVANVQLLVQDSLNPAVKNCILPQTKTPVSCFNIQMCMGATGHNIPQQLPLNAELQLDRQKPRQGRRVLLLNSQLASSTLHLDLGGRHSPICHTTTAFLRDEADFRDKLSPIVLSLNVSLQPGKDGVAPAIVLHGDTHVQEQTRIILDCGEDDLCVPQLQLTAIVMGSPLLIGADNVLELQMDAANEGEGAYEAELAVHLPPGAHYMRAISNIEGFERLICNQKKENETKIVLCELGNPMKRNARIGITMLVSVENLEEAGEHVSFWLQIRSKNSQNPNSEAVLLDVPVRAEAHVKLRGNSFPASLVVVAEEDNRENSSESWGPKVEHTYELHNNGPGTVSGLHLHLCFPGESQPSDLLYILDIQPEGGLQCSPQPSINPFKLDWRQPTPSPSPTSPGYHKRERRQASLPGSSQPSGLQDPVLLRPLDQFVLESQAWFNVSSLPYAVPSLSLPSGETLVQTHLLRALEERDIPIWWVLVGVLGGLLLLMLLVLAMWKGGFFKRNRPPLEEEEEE
# T1 sequence (A0A8I3PMU9 1-919): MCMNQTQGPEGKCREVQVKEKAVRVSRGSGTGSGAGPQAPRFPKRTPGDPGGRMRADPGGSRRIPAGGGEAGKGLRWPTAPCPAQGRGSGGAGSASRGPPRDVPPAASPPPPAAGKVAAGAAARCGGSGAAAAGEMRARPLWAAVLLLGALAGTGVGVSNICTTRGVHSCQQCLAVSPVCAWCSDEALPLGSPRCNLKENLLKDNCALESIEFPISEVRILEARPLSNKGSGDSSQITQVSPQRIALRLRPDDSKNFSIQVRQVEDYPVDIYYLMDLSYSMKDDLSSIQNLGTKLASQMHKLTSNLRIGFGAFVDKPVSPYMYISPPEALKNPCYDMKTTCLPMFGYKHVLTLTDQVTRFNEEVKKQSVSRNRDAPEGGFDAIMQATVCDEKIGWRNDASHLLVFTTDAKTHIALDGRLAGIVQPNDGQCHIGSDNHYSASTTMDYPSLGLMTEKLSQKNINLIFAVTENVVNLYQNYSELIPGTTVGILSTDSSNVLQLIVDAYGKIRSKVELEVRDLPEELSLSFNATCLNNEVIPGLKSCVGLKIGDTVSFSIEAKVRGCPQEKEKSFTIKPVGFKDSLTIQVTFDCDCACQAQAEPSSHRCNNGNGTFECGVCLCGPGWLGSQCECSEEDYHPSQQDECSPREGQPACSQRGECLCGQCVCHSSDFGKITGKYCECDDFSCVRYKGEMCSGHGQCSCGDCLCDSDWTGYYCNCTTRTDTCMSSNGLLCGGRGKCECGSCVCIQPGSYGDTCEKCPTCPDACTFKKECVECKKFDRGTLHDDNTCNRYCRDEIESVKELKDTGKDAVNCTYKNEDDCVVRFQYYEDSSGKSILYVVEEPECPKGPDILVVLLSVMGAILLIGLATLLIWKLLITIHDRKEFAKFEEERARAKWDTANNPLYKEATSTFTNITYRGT
# Method: (§1) Blood was collected (citrated to prevent coagulation) from, naive, adult mongrel dogs. Platelet rich plasma, PRP, was prepared by centrifugation at 150×g for 10 min. at room temperature. Washed platelets were prepared by centrifuging PRP at 800×g for 10 min. The cell pellet thus obtained was washed twice in Tyrode's buffer (pH 6.5) without Ca^2+ and resuspended in Tyrode's buffer (pH 7.4) containing 1.8 mM Ca^2+ at […]. Peptides were added 3 min. prior to the agonist in all assays of platelet aggregation. Final agonist concentrations were 0.1 unit/ml thrombin and 2 μM ADP (Sigma). Aggregation was monitored in a Chrono-Log Lumi-Aggregometer. Light transmittance 5 min. after addition of the agonist was used to calculate percent aggregation according to the formula % aggregation=[(90-CR).div.(90-10)]×100, where CR is the chart reading, 90 is the baseline, and 10 is the PRP blank reading. IC50 's were determined by plotting [% inhibition of aggregation] vs. [concentration of peptide]. Peptides were assayed at 200 μM and diluted sequentially by a factor of 2 to establish a suitable dose response curve.
# [2] = Stability of the peptide to plasma proteases (3 hrs. incubation in PRP before agonist); format: in vitro ADME, dog; settings: peptide incubated 3 hrs. in PRP prior to addition of agonist
# Method: as §1
# To assess the stability of the peptide to plasma proteases, the peptides were incubated for 3 hrs. (rather than 3 min.) in the PRP prior to addition of the agonist.
# Washed platelets = target: T2, Washed platelets (Canis lupus familiaris, UniProt A0A8I3N5G5+A0A8I3PMU9); assay: Inhibition of platelet aggregation, WP/Thrombin; format: cell-based; settings: dog washed platelets, 0.1 unit/ml thrombin, peptide added 3 min. prior to agonist; read-out: Antiaggregatory Activity IC50, μM WP/Thrombin
# T2 sequence (A0A8I3N5G5 1-1047): T1 sequence (A0A8I3N5G5 1-1047)
# T2 sequence (A0A8I3PMU9 1-919): T1 sequence (A0A8I3PMU9 1-919)
# Method: as §1
# [3] = tested on: platelet aggregation/thrombus formation; assay: In vivo inhibition of thrombus formation, coronary thrombosis model in anesthetized dogs; set-up: species or system dog
# Method: Briefly, a small Lexan® cylinder is placed around a mechanically damaged left circumflex coronary artery to produce a fixed partial obstruction of 80-90%. Under these conditions, platelets adhere to the exposed subendothelial collagen and aggregate at the obstructed site. Aggregation is assessed as a gradual reduction in blood flow over 2-3 min. until the thrombus is mechanically dislodged from the lumen of the obstructed vessel and coronary blood flow is restored. This process is allowed to repeat itself every 2-3 min. through the control period of the experiment.
# preformed human clot = assay: Human clot lysis assay (tPA induced fibrinolysis); format: biochemical
# Method: The human clot lysis assay is used to assess the in vitro effect of anti-fibrotic peptide on tPA induced fibrinolysis. Outdated, citrated, human plasma from the American Red Cross is spun for 20 min. at 1300X g to remove remaining blood cells. A solution consisting of plasma, ^125 I-fibrinogen, calcium chloride and thrombin is added to 6 mm tissue culture plates and incubated 15 to 18 hrs. at 37° C. The next morning, each well is rinsed to release the clot. Clots are washed twice with Tris-buffered saline, containing heparin and albumin. Each clot is then added to 1.0 ml of the same plasma used to prepare the clot. tPA is added to tubes over a concentration range of 7 to 250 ng/ml (final concentration). Tubes are incubated at 37° C. with gentle rotation for 4 hrs. At the end of 4 hrs., a 25 μl aliquot is removed and counted to measure ^125 I released from the clot. All samples are run in triplicate.
Molecule,IC50 [1],% Activity after 3 hr. in PRP [2],IC50 (Washed platelets),also measured
"CC(=O)N[C@H]1CSSC[C@@H](C(N)=O)NC(=O)[C@H](CO)NC(=O)[C@H](CC(=O)O)NC(=O)CNC(=O)[C@H](CCCNC(=N)N)N(C)C1=O [Example 1, N^α -Ac-Cyclo(S,S) Cys-MeArg-Gly-Asp-Ser-Cys-NH2] (HELM PEPTIDE1{[ac].C.[meR].G.D.S.C.[am]}$PEPTIDE1,PEPTIDE1,2:R3-7:R3$$$V2.0)",1.1 µM,100%,,
"CC(=O)N[C@H]1CSSC2(CCCCC2)C(C(N)=O)NC(=O)[C@H](CC(=O)O)NC(=O)CNC(=O)[C@H](CCCNC(=N)N)NC1=O (stereo partly drawn) [Example 2, N^α -Ac-Cyclo(S,S) Cys-Arg-Gly-Asp-(D,L) APmp-NH2] (HELM PEPTIDE1{[ac].C.R.G.D.[O=C(C(N[*:1])C1(S[*:3])CCCCC1)[*:2]].[am]}$PEPTIDE1,PEPTIDE1,2:R3-6:R3$$$V2.0)",1.53 µM,100%,,
"CC(=O)N[C@H]1CSSC[C@@H](C(N)=O)NC(=O)[C@H](CO)NC(=O)[C@H](CC(=O)O)NC(=O)CNC(=O)[C@H](CCCN=C(N)N)NC1=O [Example 3, N^α -Ac-Cyclo(S,S) Cys-Arg-Gly-Asp-Ser-Cys-NH2] (HELM PEPTIDE1{[ac].C.R.G.D.S.C.[am]}$PEPTIDE1,PEPTIDE1,2:R3-7:R3$$$V2.0)",,,54.3 µM,
"CC(=O)N(C)[C@@H](CCCNC(=N)N)C(=O)NCC(=O)N[C@@H](CC(=O)O)C(=O)N[C@@H](CO)C(N)=O [Example 26, N^α -Ac-N a-MeArg-Gly-Asp-Ser-NH2] (HELM PEPTIDE1{[ac].[meR].G.D.S.[am]}$$$$V2.0)",7.4 µM,100%,28.2 µM,
"CC(=O)N[C@@H](CCCN=C(N)N)C(=O)NCC(=O)N[C@@H](CC(=O)O)C(=O)N[C@@H](CO)C(N)=O [Example 27, N^α -Ac-Arg-Gly-Asp-Ser-NH2] (Ac-RGDS-NH2)",,0%,,effect of infusion upon coronary arterial blood pressure ([3]; 400 mM at 0.1 ml/min): no effect
"CC(=O)N[C@@H](CCCNC(=N)N)C(=O)NCC(=O)N[C@@H](CC(=O)O)C(=O)N[C@@H](CO)C(N)=O [Example 27, N^α -Ac-Arg-Gly-Asp-Ser-NH2] (Ac-RGDS-NH2)",,,,"inhibition of thrombus formation (mean coronary blood flow) ([3]; 400 mM at 0.013 ml/min.): partial inhibition with prolongation of time to complete blockage; inhibition of thrombus formation (mean coronary blood flow) ([3]; 400 mM at 0.026 ml/min. infusion, listed as Ac-RGDS-NH2): moderate inhibition with spontaneous sloughing off of the thrombus; also recorded: moderate inhibition with spontaneous sloughing off of thrombi; inhibition of thrombus formation (mean coronary blood flow) ([3]; 400 mM at 0.052 ml/min. infusion rate): complete inhibition of thrombus formation; inhibition of thrombus formation (coronary blood flow) ([3]; coronary infusion 400 mM at 0.1 ml/min, listed as Ac-RGDS-NH2): complete inhibition of thrombus formation; effect upon tPA promoted human clot lysis in vitro (preformed human clot; 1 mM peptide, listed as Ac-RGDS-NH2): no interaction; also recorded: no effect"
"CC(=O)N[C@@H](CCCN=C(N)N)C(=O)NCC(=O)N[C@@H](CC(=O)O)C(N)=O [Example 29, N^α -Ac-Arg-Gly-Asp-NH2]",138 µM,,356 µM,
"CC(=O)N[C@@H](CCCNC(=N)N)C(=O)NCC(=O)N[C@@H](CC(=O)O)C(=O)N[C@@H](Cc1ccc2ccccc2c1)C(N)=O [Example 32, N^α -Ac-Arg-Gly-Asp-Nal-NH2] (HELM PEPTIDE1{[ac].R.G.D.[O=C([C@H](Cc1ccc2ccccc2c1)N[*:1])[*:2]].[am]}$$$$V2.0)",40.5 µM,100%,,
"CC(=O)N(C)[C@@H](CCCNC(=N)N)C(=O)NCC(=O)N[C@@H](CC(=O)O)C(=O)N[C@@H](Cc1ccccc1)C(N)=O [Example 35, N^α -Ac-MeArg-Gly-Asp-Phe-NH2] (HELM PEPTIDE1{[ac].[meR].G.D.F.[am]}$$$$V2.0)",10.8 µM,100%,,
N^α -Ac-Arg-Gly-Asp-Tyr-NH2 [Example 28],102 µM,98%,137 µM,
"tPA(MT2N3): tissue plasminogen activator (tPA), fibrinolytic agent used to induce clot lysis",,,,"EC50 of tPA-induced clot lysis, control period (preformed human clot; % clot lysis at 4 hours, tPA alone): 31.5 ± 9.9 µg/mL"
